Patent publication US11203592B2, “Inhibitors of indoleamine 2,3-dioxygenase and methods of their use” (BRISTOL-MYERS SQUIBB COMPANY, priority 2017, dated 2021)
Where a name gives a salt, the structure may show the parent alone.

molecular target: T1, indoleamine 2,3-dioxygenase (IDO) (Homo sapiens, UniProt P14902); test: HeLa cell-based indoleamine 2,3-dioxygenase (IDO) assay, kynurenine production; conditions: HeLa cells, IFNγ 25 ng/mL, 48 hour incubation, kynurenine absorbance at 480 nm
T1 construct: endogenous in cells; host or cells: HeLa (ATCC CCL-2), induced with IFNγ at 25 ng/mL
T1 sequence (P14902 whole entry): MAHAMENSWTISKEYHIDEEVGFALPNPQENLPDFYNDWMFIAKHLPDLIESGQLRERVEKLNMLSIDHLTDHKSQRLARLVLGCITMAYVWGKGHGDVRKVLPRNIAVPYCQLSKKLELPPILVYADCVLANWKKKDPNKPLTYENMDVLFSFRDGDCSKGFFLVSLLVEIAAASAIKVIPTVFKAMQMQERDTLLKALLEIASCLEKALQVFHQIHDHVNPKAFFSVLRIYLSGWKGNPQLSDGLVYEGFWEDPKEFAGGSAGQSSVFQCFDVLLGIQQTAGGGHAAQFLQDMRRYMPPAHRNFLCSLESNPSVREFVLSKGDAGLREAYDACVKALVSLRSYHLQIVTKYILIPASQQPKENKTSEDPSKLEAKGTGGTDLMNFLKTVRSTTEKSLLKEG
Experimental: Assessment of Inhibitor Activity in HeLa Cell-Based Indoleamine 2,3-dioxygenase (IDO) Assay:
HeLa (ATCC® CCL-2) cells were obtained from the ATCC® and cultured in Dulbecco's Modified Eagle Medium supplemented with 4.5 g/L glucose, […] (#10-013-CV, Corning), 2 mM L-alanyl-L-glutamine dipeptide (#35050-061, Gibco), 100U/mL penicillin, 100 μg/mL streptomycin (#SV30010, HyClone) and 10% fetal bovine serum (#SH30071.03 HyClone). Cells were maintained in a humidified incubator at 37° C. in 5% CO2.
IDO activity was assessed as a function of kynurenine production as follows: HeLa cells were seeded in a 96-well culture plate at a density of 5,000 cells/well and allowed to equilibrate overnight. After 24 hours, the media was aspirated and replaced with media containing IFNγ (#285-IF/CF, R&D Systems) at a final concentration of 25 ng/mL. A serial dilution of each test compound was added to the cells in a total volume of 200 μL of culture medium. After a further 48 hour incubation, 170 μL of supernatant was transferred from each well to a fresh 96-well plate. 12.1 μL of 6.1N trichloroacetic acid (#T0699, Sigma-Aldrich) was added to each well and mixed, followed by incubation at 65° C. for 20 minutes to hydrolyze N-formylkynurenine, the product of indoleamine 2,3-dioxygenase, to kynurenine. The reaction mixture was then centrifuged for 10 mins at 500×g to sediment the precipitate. 100 μL of the supernatant was transferred from each well to a fresh 96-well plate. 100 μl of 2% (w/v) p-dimethylaminobenzaldehyde (#15647-7, Sigma-Aldrich) in acetic acid (#A6283, Sigma-Aldrich) was added to each well mixed and incubated at room temperature for 20 inns. Kynurenine concentrations were determined by measuring absorbance at 480 nm and calibrating against an L-kynurenine (#K8625, Sigma-Aldrich) standard curve using a SPECTRAMAX® M2e microplate reader (Molecular Devices). The percentage activity at each inhibitor concentration was determined and IC50 values assessed using nonlinear regression.

SMILES | IC50 [nM]
CC(C(=O)Nc1ccc(Cl)cc1)[C@H]1CC[C@@]2(CC1)OCc1ccccc12 (mixture of isomers) [Example 4, rac-N-(4-Chlorophenyl)-2-((1r,4r)-3′H-spiro[cyclohexane-1,1′-isobenzofuran]-4-yl)propanamide] | 50
CC(C(=O)Nc1ccc(Cl)cc1)[C@H]1CC[C@]2(CC1)OCc1ccccc12 (mixture of isomers) [Example 5, N-(4-Chlorophenyl)-2-((1s,4s)-3′H-spiro[cyclohexane-1,1′-isobenzofuran]-4-yl)propanamide] | 92
CC(C(=O)NC12CC3CC(CC(C3)C1)C2)[C@H]1CC[C@]2(CC1)OCc1ccccc12 (mixture of isomers) [Example 6, rac-N-((1R,3S)-Adamantan-1-yl)-2-((1S,4s)-3′H-spiro[cyclohexane-1,1′-isobenzofuran]-4-yl)propanamide] | 1300
CC(NC(=O)c1ccc(Cl)cc1)[C@H]1CC[C@]2(CC1)OCc1ccccc12 (mixture of isomers) [Example 11, rac-N-(1-((1s,4s)-3′H-spiro[cyclohexane-1,1′-isobenzofuran]-4-yl)ethyl)-4-chlorobenzamide] | 45
CC(NC(=O)C12CC3CC(CC(C3)C1)C2)[C@H]1CC[C@]2(CC1)OCc1ccccc12 (mixture of isomers) [Example 12, rac-(1R,3S)—N-(1-((1S,4s)-3′H-spiro[cyclohexane-1,1′-isobenzofuran]-4-yl)ethyl)adamantane-1-carboxamide] | 1440
CC(NC(=O)C12CCC(Cl)(CC1)CC2)[C@H]1CC[C@]2(CC1)OCc1ccccc12 (mixture of isomers) [Example 13, rac-N-(1-((1s,4s)-3′H-Spiro[cyclohexane-1,1′-isobenzofuran]-4-yl)ethyl)-4-chlorobicyclo[2.2.2]octane-1-carboxamide] | 628

molecular target: T2, human IDO1 (Homo sapiens, UniProt P14902); test: human IDO1/HEK293 cell IDO inhibition assay; assay type: cell-based; conditions: HEK293 cells stably expressing human IDO1, 20 hours incubation, absorbance at 490 nm; read-out: IDO1 HEK Human IC50
T2 construct: expressed in transfected cells
T2 sequence (P14902 whole entry): as above
Experimental: HEK293 cells were transfected with a pCDNA-based mammalian expression vector harboring human IDO1 cDNA (NM 002164.2) by electroporation. They were cultured in medium (DMEM with 10% FBS) containing 1 mg/ml G418 for two weeks. Clones of HEK293 cells that stably expressed human IDO1 protein were selected and expanded for IDO inhibition assay.
The human IDO1/HEK293 cells were seeded at 10,000 cells per 50 μL per well with RPMI/phenol red free media contains 10% FBS in a 384-well black wall clear bottom tissue culture plate (Matrix Technologies LLC) 100 nL of certain concentration of compound was then added to each well using ECHO liquid handling systems. The cells were incubated for 20 hours in 37° C. incubator with 5% CO2.
The compound treatments were stopped by adding trichloroacetic acid (Sigma-Aldrich) to a final concentration at 0.2%. The cell plate was further incubated at 50° C. for 30 minute. The equal volume supernatant (20 μL) and 0.2% (w/v) Ehrlich reagent (4-dimethylaminobenzaldehyde, Sigma-Aldrich) in glacial acetic acid were mixed in a new clear bottom 384-well plate. This plate was then incubated at room temperature for 30 minute. The absorbance at 490 nm was measured on Envision plate reader.
Compound IC50 values were calculated using the counts of 500 nM of a reference standard treatment as one hundred percent inhibition, and counts of no compound but DMSO treatment as zero percent inhibition.

SMILES | IC50 [nM]
Cc1cccc2c1[C@]1(CC[C@@H](C(C)C(=O)Nc3ccc(Cl)cc3)CC1)OC2 (mixture of isomers) [Example 7, rac-N-(4-Chlorophenyl)-2-((1r,4r)-7′-methyl-3′H-spiro[cyclohexane-1,1′-isobenzofuran]-4-yl)propanamide] | 37
Cc1cccc2c1[C@]1(CC[C@H](C(C)C(=O)Nc3ccc(Cl)cc3)CC1)OC2 (mixture of isomers) [Example 8, rac-N-(4-chlorophenyl)-2-((1s,4s)-7′-methyl-3′H-spiro[cyclohexane-1,1′-isobenzofuran]-4-yl)propanamide] | 24
Cc1cccc2c1[C@]1(CC[C@H](C(C)C(=O)NC34CC5CC(CC(C5)C3)C4)CC1)OC2 (mixture of isomers) [Example 9, rac-N-((1R,3S)-adamantan-1-yl)-2-((1S,4s)-7′-methyl-3′H-spiro[cyclohexane-1,1′-isobenzofuran]-4-yl)propanamide] | 617
Cc1cccc2c1[C@]1(CC[C@H](C(C)C(=O)NC3(C)CCCCC3)CC1)OC2 (mixture of isomers) [Example 10, rac-2-((1s,4s)-7′-methyl-3′H-spiro[cyclohexane-1,1′-isobenzofuran]-4-yl)-N-(1-methylcyclohexyl)propanamide] | 980
CC(C(=O)Nc1ccc(Cl)cc1)[C@H]1CC[C@@]2(CC1)COc1ccccc12 (mixture of isomers) [Example 14, rac-N-(4-Chlorophenyl)-2-((1′r,4′r)-2H-spiro[benzofuran-3,1′-cyclohexan]-4′-yl)propanamide] | 5
CC(NC(=O)c1ccc(Cl)cc1)[C@H]1CC[C@@]2(CC1)COc1ccccc12 (mixture of isomers) [Example 17, rac-N-(1-((1′r,4′r)-2H-Spiro[benzofuran-3,1′-cyclohexan]-4′-yl)ethyl)-4-chlorobenzamide] | 59
CC(C(=O)Nc1ccc(Cl)cc1)[C@H]1CC[C@]2(CC1)COc1ccccc12 (mixture of isomers) [Example 20, rac-N-(4-Chlorophenyl)-2-((1′s,4′s)-2H-spiro[benzofuran-3,1′-cyclohexan]-4′-yl)propanamide] | 61
CC(NC(=O)c1ccc(Cl)cc1)[C@H]1CC[C@]2(CC1)COc1ccccc12 (mixture of isomers) [Example 21, rac-N-(1-((1′s,4′s)-2H-Spiro[benzofuran-3,1′-cyclohexan]-4′-yl)ethyl)-4-chlorobenzamide] | 59
CC(c1nc2ncc(Cl)cc2[nH]1)[C@H]1CC[C@@]2(CC1)COc1ccccc12 (mixture of isomers) [Example 24, rac-2-(1-((1′r,4′r)-2H-Spiro[benzofuran-3,1′-cyclohexan]-4′-yl)ethyl)-6-chloro-1H-imidazo[4,5-b]pyridine TFA Salt] | 117
CC(NC(=O)c1ccc(C#N)cc1)[C@H]1CC[C@]2(CC1)COc1ccccc12 (mixture of isomers) [Example 27, rac-N-(1-((1′s,4′s)-2H-Spiro[benzofuran-3,1′-cyclohexan]-4′-yl)ethyl)-4-cyanobenzamide] | 93
Cc1cccc2c1OC(CO)[C@]21CC[C@H](CC(=O)Nc2ccc(Cl)cc2)CC1 (mixture of isomers) [Example 29, rac-N-(4-Chlorophenyl)-2-((1′r,2R,4′R)-2-(hydroxymethyl)-7-methyl-2H-spiro[benzofuran-3,1′-cyclohexan]-4′-yl)acetamide] | 68
Cc1cccc2c1OC(CO)[C@]21CC[C@@H](CC(=O)Nc2ccc(Cl)cc2)CC1 (mixture of isomers) [Example 30, rac-N-(4-Chlorophenyl)-2-((1′s,2R,4′S)-2-(hydroxymethyl)-7-methyl-2H-spiro[benzofuran-3,1′-cyclohexan]-4′-yl)acetamide] | 363
C[C@@H](C(=O)Nc1ccc(Cl)cc1)[C@H]1CC[C@@]2(CC1)COc1ccccc12 [Example 16, (R)—N-(4-Chlorophenyl)-2-((1′R,4′r)-2H-spiro[benzofuran-3,1′-cyclohexan]-4′-yl)propanamide] | 8
C[C@@H](NC(=O)c1ccc(Cl)cc1)[C@H]1CC[C@@]2(CC1)COc1ccccc12 [Example 18, N—((R)-1-((1′R,4′r)-2H-Spiro[benzofuran-3,1′-cyclohexan]-4′-yl)ethyl)-4-chlorobenzamide] | 9
C[C@H](NC(=O)c1ccc(Cl)cc1)[C@H]1CC[C@@]2(CC1)COc1ccccc12 [Example 19, N—((S)-1-((1'S,4′r)-2H-Spiro[benzofuran-3,1′-cyclohexan]-4′-yl)ethyl)-4-chlorobenzamide] | 914
C[C@@H](c1nc2ccc(Cl)cc2[nH]1)[C@H]1CC[C@@]2(CC1)COc1ccccc12 [Example 22, 2-((R)-1-((3R,4′r)-2H-spiro[benzofuran-3,1′-cyclohexan]-4′-yl)ethyl)-6-chloro-1H-benzo[d]imidazole] | 142
C[C@H](c1nc2ccc(Cl)cc2[nH]1)[C@H]1CC[C@@]2(CC1)COc1ccccc12 [Example 23, 2-((S)-1-((3S,4′r)-2H-spiro[benzofuran-3,1′-cyclohexan]-4′-yl)ethyl)-6-chloro-1H-benzo[d]imidazole] | 254
C[C@@H](c1nc2ncc(Cl)cc2[nH]1)[C@H]1CC[C@@]2(CC1)COc1ccccc12 [Example 25, 2-((R)-1-((3R,4′r)-2H-spiro[benzofuran-3,1′-cyclohexan]-4′-yl)ethyl)-6-chloro-1H-imidazo[4,5-b]pyridine] | 794
C[C@H](c1nc2ncc(Cl)cc2[nH]1)[C@H]1CC[C@@]2(CC1)COc1ccccc12 [Example 26, 2-((S)-1-((3S,4′r)-2H-spiro[benzofuran-3,1′-cyclohexan]-4′-yl)ethyl)-6-chloro-1H-imidazo[4,5-b]pyridine] | 43
